Assays:
Experiment in all cases: relative viability (nuclei count vs DMSO), 5 days (fraction); higher = more cells survive
NCI-H1734 = test system: NCI-H1734
Method in brief: (§1)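 Five library-drug doses in √10 steps were combined with a fixed anchor-drug dose, or a single drug was given alone, by pin tool to lung cancer cell lines in 1536-well plates the day after seeding. Nuclei were stained and counted after 5 days. Relative viability is the nuclei count in treated wells over that in vehicle wells, taken as the median of duplicate plates.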

NCI-H1395 = test system: NCI-H1395
Method in brief: as §1

NCI-H1793 = test system: NCI-H1793
Method in brief: as §1

HOP-62 = test system: HOP-62
Method in brief: as §1

NCI-H2342 = test system: NCI-H2342
Method in brief: as §1

NCI-H1755 = test system: NCI-H1755
Method in brief: as §1

SK-MES-1 = test system: SK-MES-1
Method in brief: as §1

NCI-H2009 = test system: NCI-H2009
Method in brief: as §1

NCI-H647 = test system: NCI-H647
Method in brief: as §1

UMC-11 = test system: UMC-11
Method in brief: as §1

COR-L 105 = test system: COR-L 105
Method in brief: as §1

NCI-H358 = test system: NCI-H358
Method in brief: as §1

NCI-H2228 = test system: NCI-H2228
Method in brief: as §1

PC-14 = test system: PC-14
Method in brief: as §1

HCC-15 = test system: HCC-15
Method in brief: as §1

HARA = test system: HARA
Method in brief: as §1

NCI-H838 = test system: NCI-H838
Method in brief: as §1

COR-L23 = test system: COR-L23
Method in brief: as §1

NCI-H2347 = test system: NCI-H2347
Method in brief: as §1

NCI-H1993 = test system: NCI-H1993
Method in brief: as §1

NCI-H1355 = test system: NCI-H1355
Method in brief: as §1

EKVX = test system: EKVX
Method in brief: as §1

NCI-H2170 = test system: NCI-H2170
Method in brief: as §1

NC(=O)Nc1cc(-c2cccc(F)c2)sc1C(=O)N[C@H]1CCCNC1 [AZD7762] + O=C(CCCCCCC(=O)Nc1ccccc1)NO [Vorinostat] (partner 1 µM)
relative viability (NCI-H1734; first compound 0.01 µM): 0.772
relative viability (NCI-H1734; first compound 0.03162 µM): 0.723
relative viability (NCI-H1734; first compound 0.1 µM): 0.738
relative viability (NCI-H1734; first compound 0.3162 µM): 0.415
relative viability (NCI-H1734; first compound 1 µM): 0.251
relative viability (NCI-H1395; first compound 0.01 µM): 0.721
relative viability (NCI-H1395; first compound 0.03162 µM): 0.84
relative viability (NCI-H1395; first compound 0.1 µM): 0.684
relative viability (NCI-H1395; first compound 0.3162 µM): 0.32
relative viability (NCI-H1395; first compound 1 µM): 0.336
relative viability (NCI-H1793; first compound 0.01 µM): 0.692
relative viability (NCI-H1793; first compound 0.03162 µM): 0.878
relative viability (NCI-H1793; first compound 0.1 µM): 0.981
relative viability (NCI-H1793; first compound 0.3162 µM): 0.953
relative viability (NCI-H1793; first compound 1 µM): 0.284
relative viability (HOP-62; first compound 0.01 µM): 0.571
relative viability (HOP-62; first compound 0.03162 µM): 0.68
relative viability (HOP-62; first compound 0.1 µM): 0.701
relative viability (HOP-62; first compound 0.3162 µM): 0.607
relative viability (HOP-62; first compound 1 µM): 0.237
relative viability (NCI-H2342; first compound 0.01 µM): 0.715
relative viability (NCI-H2342; first compound 0.03162 µM): 0.85
relative viability (NCI-H2342; first compound 0.1 µM): 0.722
relative viability (NCI-H2342; first compound 0.3162 µM): 0.74
relative viability (NCI-H2342; first compound 1 µM): 0.633
relative viability (NCI-H1755; first compound 0.01 µM): 0.804
relative viability (NCI-H1755; first compound 0.03162 µM): 0.723
relative viability (NCI-H1755; first compound 0.1 µM): 0.72
relative viability (NCI-H1755; first compound 0.3162 µM): 0.663
relative viability (NCI-H1755; first compound 1 µM): 0.423
relative viability (SK-MES-1; first compound 0.01 µM): 1.12
relative viability (SK-MES-1; first compound 0.03162 µM): 1.01
relative viability (SK-MES-1; first compound 0.1 µM): 0.841
relative viability (SK-MES-1; first compound 0.3162 µM): 0.45
relative viability (SK-MES-1; first compound 1 µM): 0.192
relative viability (NCI-H2009; first compound 0.01 µM): 0.794
relative viability (NCI-H2009; first compound 0.03162 µM): 0.733
relative viability (NCI-H2009; first compound 0.1 µM): 0.693
relative viability (NCI-H2009; first compound 0.3162 µM): 0.688
relative viability (NCI-H2009; first compound 1 µM): 0.625
relative viability (NCI-H647; first compound 0.01 µM): 0.637
relative viability (NCI-H647; first compound 0.03162 µM): 0.554
relative viability (NCI-H647; first compound 0.1 µM): 0.521
relative viability (NCI-H647; first compound 0.3162 µM): 0.281
relative viability (NCI-H647; first compound 1 µM): 0.108
relative viability (UMC-11; first compound 0.01 µM): 0.373
relative viability (UMC-11; first compound 0.03162 µM): 0.297
relative viability (UMC-11; first compound 0.1 µM): 0.324
relative viability (UMC-11; first compound 0.3162 µM): 0.271
relative viability (UMC-11; first compound 1 µM): 0.194
relative viability (COR-L 105; first compound 0.01 µM): 0.989
relative viability (COR-L 105; first compound 0.03162 µM): 0.823
relative viability (COR-L 105; first compound 0.1 µM): 0.808
relative viability (COR-L 105; first compound 0.3162 µM): 0.609
relative viability (COR-L 105; first compound 1 µM): 0.444
relative viability (NCI-H358; first compound 0.01 µM): 0.687
relative viability (NCI-H358; first compound 0.03162 µM): 0.667
relative viability (NCI-H358; first compound 0.1 µM): 0.658
relative viability (NCI-H358; first compound 0.3162 µM): 0.346
relative viability (NCI-H358; first compound 1 µM): 0.0934
relative viability (NCI-H2228; first compound 0.01 µM): 1.06
relative viability (NCI-H2228; first compound 0.03162 µM): 0.443
relative viability (NCI-H2228; first compound 0.1 µM): 0.59
relative viability (NCI-H2228; first compound 0.3162 µM): 0.383
relative viability (NCI-H2228; first compound 1 µM): 0.299
relative viability (PC-14; first compound 0.01 µM): 0.761
relative viability (PC-14; first compound 0.03162 µM): 0.591
relative viability (PC-14; first compound 0.1 µM): 0.57
relative viability (PC-14; first compound 0.3162 µM): 0.292
relative viability (PC-14; first compound 1 µM): 0.0419
relative viability (HCC-15; first compound 0.01 µM): 0.844
relative viability (HCC-15; first compound 0.03162 µM): 0.691
relative viability (HCC-15; first compound 0.1 µM): 0.908
relative viability (HCC-15; first compound 0.3162 µM): 0.734
relative viability (HCC-15; first compound 1 µM): 0.723
relative viability (HARA; first compound 0.01 µM): 0.454
relative viability (HARA; first compound 0.03162 µM): 0.483
relative viability (HARA; first compound 0.1 µM): 0.509
relative viability (HARA; first compound 0.3162 µM): 0.503
relative viability (HARA; first compound 1 µM): 0.451
relative viability (NCI-H838; first compound 0.01 µM): 0.731
relative viability (NCI-H838; first compound 0.03162 µM): 0.726
relative viability (NCI-H838; first compound 0.1 µM): 0.76
relative viability (NCI-H838; first compound 0.3162 µM): 0.745
relative viability (NCI-H838; first compound 1 µM): 0.272
relative viability (COR-L23; first compound 0.01 µM): 0.562
relative viability (COR-L23; first compound 0.03162 µM): 0.423
relative viability (COR-L23; first compound 0.1 µM): 0.246
relative viability (COR-L23; first compound 0.3162 µM): 0.129
relative viability (COR-L23; first compound 1 µM): 0.0864
relative viability (NCI-H2347; first compound 0.01 µM): 0.554
relative viability (NCI-H2347; first compound 0.03162 µM): 0.711
relative viability (NCI-H2347; first compound 0.1 µM): 0.557
relative viability (NCI-H2347; first compound 0.3162 µM): 0.637
relative viability (NCI-H2347; first compound 1 µM): 0.547
relative viability (NCI-H1993; first compound 0.01 µM): 0.764
relative viability (NCI-H1993; first compound 0.03162 µM): 0.729
relative viability (NCI-H1993; first compound 0.1 µM): 0.725
relative viability (NCI-H1993; first compound 0.3162 µM): 0.813
relative viability (NCI-H1993; first compound 1 µM): 0.391
relative viability (NCI-H1355; first compound 0.01 µM): 0.609
relative viability (NCI-H1355; first compound 0.03162 µM): 0.629
relative viability (NCI-H1355; first compound 0.1 µM): 0.649
relative viability (NCI-H1355; first compound 0.3162 µM): 0.647
relative viability (NCI-H1355; first compound 1 µM): 0.379
relative viability (EKVX; first compound 0.01 µM): 0.78
relative viability (EKVX; first compound 0.03162 µM): 0.758
relative viability (EKVX; first compound 0.1 µM): 0.707
relative viability (EKVX; first compound 0.3162 µM): 0.794
relative viability (EKVX; first compound 1 µM): 0.461
relative viability (NCI-H2170; first compound 0.01 µM): 0.81
relative viability (NCI-H2170; first compound 0.03162 µM): 0.834
relative viability (NCI-H2170; first compound 0.1 µM): 0.766
relative viability (NCI-H2170; first compound 0.3162 µM): 0.772
relative viability (NCI-H2170; first compound 1 µM): 0.824

From the supplement of paper PMC10307832
